Test [1] has as its system gastric adenocarcinoma SGC-7901 cells. Put plainly: MTT antiproliferative assay, SGC-7901. The test is classed as cell-based, human. The settings on record: Homo sapiens, SGC-7901; MTT assay, 24 h exposure, triplicate; read-out: IC50 SGC-7901. The protocol: (§1) The SGC-7901, A549 and HT-1080 cell lines were purchased from the American Type Culture Collection (ATCC, Manassas, VA, USA). […] Briefly, approximately 3 × 10^4 cells were seeded in a 96-well plate. After 24 h of incubation at 37 °C, cells were exposed to compounds of differing concentrations for 24 h. After treatment, cells were washed with 1X PBS followed by addition of 100 µL of 0.05% MTT reagent to each well, followed by incubation for 4 h at 37 °C. After incubation, the supernatant from each well was carefully removed and the formazan crystals were dissolved in 100 µL of DMSO. The colour density was measured spectrophotometrically at 490 nm using a microplate reader (SpectraMax Plus384, Molecular Devices Corp., USA). The data were calculated and plotted as percent viability compared to control.
as §1

In test [2] the test system is lung adenocarcinoma A549 cells. The test can be described thus: MTT antiproliferative assay, A549. The note with it: Homo sapiens, A549; MTT assay, 24 h exposure, triplicate; read-out: IC50 A549. The test is classed as cell-based, human. As for the experimental part: as §1, §1
On the technique in general: Tetrazolium assays rely on reduction of a dye to a coloured formazan, in cell work by metabolically active cells.

Test [3] has as its system fibrosarcoma HT-1080 cells. Put plainly: MTT antiproliferative assay, HT-1080. The settings on record: Homo sapiens, HT-1080; MTT assay, 24 h exposure, triplicate; read-out: IC50 HT-1080. The test is classed as cell-based, human. As for the experimental part: as §1, §1
The target in test [4] is T1, highly purified tubulin from porcine brain (Sus scrofa, UniProt P02554).
T1 construct: highly purified tubulin from porcine brain; purchased Cytoskeleton BK011P; host or cells: porcine brain (tissue-purified)
The test can be described thus: Tubulin polymerization assay. In kind it is biochemical. The note with it: 37 °C; for effect on tubulin polymerization in words: CA-4 0.5-4 µM, 6i 0.1-8.0 µM, paclitaxel 5.0 µM. The protocol: This assay uses highly purified tubulin from porcine brain.
The reaction was monitored at 37 °C.
(§2) Tubulin polymerization assay[33] was conducted with reagents as described in the kit manufacturer (Cytoskeleton, Cat.#BK011P) in a 96-well plate. In brief, tubulin was re-suspended in ice-cold G-PEM buffer (80 mM PIPES, 2 mM MgCl2, 0.5 mM EGTA, 1 mM GTP, 20% (v/v) glycerol) and added to wells on a 96-well plate containing the designated concentration of drugs or vehicle. Samples were mixed well, and tubulin assembly was monitored (emission wavelength: 450 ± 20 nm; excitation wavelength: 360 ± 20 nm) at 1 min intervals for 90 min at 37 °C in a SpectraMax 340PC spectrophotometer (Biotek Synergy HT, Winooskin, VT, USA). IC50 values were calculated from data at the 20 min time point using GraphPad Prism software. Experiments were repeated three times.
as §2, with “assay” for “assay[33]”, “450±20” for “450 ± 20”, “360±20” for “360 ± 20”, “timepoint” for “time point”

In test [5] the test system is tubulin network of SGC-7901 cells. Put plainly: Immunofluorescence of tubulin network. In kind it is cell-based, human. The note with it: 2-fold IC50 (0.022 µM), 12 h. The protocol:
CA-4 was employed as positive control in this experiment.
Figure 4 Effects of 6i on tubulin network of SGC-7901 cells by immunofluorenscence. […] The left and middle panels represent the tubulin assembly stained with DAPI and FITC and the right panel represents a merge of the corresponding left and middle panels.
The SGC-7901 cells were seeded at a density of 1 × 10^4 per well on a 24-well plate and grown for 24 h. […] Cells in the control group were treated with culture medium. The control and treated cells were fixed with 4% formaldehyde in PBS for 30 min at -20 °C, then washed twice with PBS and permeabilized with 0.1% (v/v) Triton X-100 in PBS for 5 min. Then, the cells were blocked with 3% bovine serum albumin (BSA) in PBS for 30 min. […] The cells were washed with PBS to remove unbound secondary antibody, nucleus was stained with 4,6-diamino-2-phenolindol dihydrochloride (DAPI) and then, immunofluorescence was detected using a fluorescence microscope (Olympus, Tokyo, Japan).
Immunostaining was carried out to detect microtubule associated tubulin protein after exposure to 6i and CA-4. […] The cells were washed with PBS to remove unbound secondary antibody, nucleus was stained with 4,6-diamino-2-phenolindol dihydrochloride (DAPI) and then, immunofluorescence was detected using a fluorescence microscope (Olympus, Tokyo, Japan).

The subject of test [6] is SGC-7901, A549 and HT-1080 cell lines. The test can be described thus: MTT antiproliferative assay, span over the three cell lines. In kind it is cell-based, human. The settings on record: MTT assay; for IC50: Homo sapiens, range over SGC-7901, A549 and HT-1080, read-out: IC50 range against the three human cancer cell lines. As for the experimental part:
as §1, §1

“Also recorded” adds a separate entry of the source.

Results on two molecules are retold here after PMC5607265, “Design, synthesis and structure-activity relationship of 3,6-diaryl-7H-[1,2,4]triazolo[3,4-b][1,3,4]thiadiazines as novel tubulin inhibitors” (Scientific Reports, 2017).

Usually IC50 stands for the concentration at which inhibition is half-maximal.

T1 sequence (P02554 whole entry): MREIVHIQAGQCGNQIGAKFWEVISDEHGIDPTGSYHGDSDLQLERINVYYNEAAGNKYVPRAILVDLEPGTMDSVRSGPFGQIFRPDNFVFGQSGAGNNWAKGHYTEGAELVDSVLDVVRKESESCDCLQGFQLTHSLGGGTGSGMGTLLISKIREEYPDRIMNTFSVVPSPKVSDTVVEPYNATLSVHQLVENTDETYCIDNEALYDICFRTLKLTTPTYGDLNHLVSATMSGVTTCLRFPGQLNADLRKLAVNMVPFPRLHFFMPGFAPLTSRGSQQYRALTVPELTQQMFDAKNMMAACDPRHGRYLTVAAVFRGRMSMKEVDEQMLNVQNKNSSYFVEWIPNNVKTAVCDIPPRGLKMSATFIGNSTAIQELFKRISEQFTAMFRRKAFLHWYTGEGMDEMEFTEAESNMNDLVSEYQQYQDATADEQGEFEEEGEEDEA
T1 sequence (P02550 whole entry partner): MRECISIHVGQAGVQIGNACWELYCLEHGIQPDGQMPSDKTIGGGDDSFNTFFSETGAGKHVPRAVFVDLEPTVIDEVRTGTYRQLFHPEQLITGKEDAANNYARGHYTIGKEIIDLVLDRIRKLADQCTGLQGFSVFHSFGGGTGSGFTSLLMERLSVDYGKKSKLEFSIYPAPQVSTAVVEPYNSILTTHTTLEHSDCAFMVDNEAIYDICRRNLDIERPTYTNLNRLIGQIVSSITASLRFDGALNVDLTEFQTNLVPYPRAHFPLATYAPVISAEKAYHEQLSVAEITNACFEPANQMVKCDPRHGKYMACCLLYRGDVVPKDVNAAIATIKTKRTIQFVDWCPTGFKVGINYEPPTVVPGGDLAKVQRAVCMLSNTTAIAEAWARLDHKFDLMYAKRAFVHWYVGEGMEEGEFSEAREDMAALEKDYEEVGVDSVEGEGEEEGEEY

With `COc1ccc(/C=C\c2cc(OC)c(OC)c(OC)c2)cc1O` [CA-4, Combretastatin A-4, reference compound], the IC50 in test [1] is 11 nM; in test [2] it was 9 nM; in test [3], 13 nM; in test [6], 9 to 13 nM. In test [4], the “effect on tubulin polymerization in words” value is on record as “dose-dependent inhibition of tubulin polymerization”. The “effect on microtubule/tubulin network” value in test [5] was “the tubulin network showed a disruption”.

For `COc1cccc(-c2nnc3n2N=C(c2ccc(OC)c(N)c2)CS3)c1` [Compound 6i, 3-(3-Methoxyphenyl)-6-(3-amino-4-methoxyphenyl)-7H-[1,2,4]triazolo[3,4-b][1,3,4]thiadiazine], the IC50 was 11 nM in test [1]; 15 nM in test [2]; 14 nM in test [3]; 1600 nM in test [4] (data at the 20 min time point, read-out: IC50 of tubulin polymerization inhibition); 11 to 15 nM in test [6]. Further, the “effect on tubulin polymerization in words” value in test [4] is given as “dose-dependent inhibition of tubulin polymerization”. Moreover, the “effect on microtubule/tubulin network” value in test [5] is “the tubulin network showed a disruption”. Besides, in test [6] (SGC-7901, A549 and HT-1080), the “antiproliferative activity in words” value was “nanomolar IC50 values against all tested cells; also recorded: IC50 values at the nanomolar level”.
